Here are results for 24 compounds from patent US5493008A, “Two non-contiguous regions contribute to nidogen binding to a single EGF-like motif of the laminin γ1 chain” (The University Of Virginia Patent Foundation, priority 1994, dated 1996).

For orientation: IC50 means the concentration that gives 50% inhibition.

The target of this test is T1, nidogen (Mus musculus, UniProt P10493).
T1 sequence (P10493 29-1245): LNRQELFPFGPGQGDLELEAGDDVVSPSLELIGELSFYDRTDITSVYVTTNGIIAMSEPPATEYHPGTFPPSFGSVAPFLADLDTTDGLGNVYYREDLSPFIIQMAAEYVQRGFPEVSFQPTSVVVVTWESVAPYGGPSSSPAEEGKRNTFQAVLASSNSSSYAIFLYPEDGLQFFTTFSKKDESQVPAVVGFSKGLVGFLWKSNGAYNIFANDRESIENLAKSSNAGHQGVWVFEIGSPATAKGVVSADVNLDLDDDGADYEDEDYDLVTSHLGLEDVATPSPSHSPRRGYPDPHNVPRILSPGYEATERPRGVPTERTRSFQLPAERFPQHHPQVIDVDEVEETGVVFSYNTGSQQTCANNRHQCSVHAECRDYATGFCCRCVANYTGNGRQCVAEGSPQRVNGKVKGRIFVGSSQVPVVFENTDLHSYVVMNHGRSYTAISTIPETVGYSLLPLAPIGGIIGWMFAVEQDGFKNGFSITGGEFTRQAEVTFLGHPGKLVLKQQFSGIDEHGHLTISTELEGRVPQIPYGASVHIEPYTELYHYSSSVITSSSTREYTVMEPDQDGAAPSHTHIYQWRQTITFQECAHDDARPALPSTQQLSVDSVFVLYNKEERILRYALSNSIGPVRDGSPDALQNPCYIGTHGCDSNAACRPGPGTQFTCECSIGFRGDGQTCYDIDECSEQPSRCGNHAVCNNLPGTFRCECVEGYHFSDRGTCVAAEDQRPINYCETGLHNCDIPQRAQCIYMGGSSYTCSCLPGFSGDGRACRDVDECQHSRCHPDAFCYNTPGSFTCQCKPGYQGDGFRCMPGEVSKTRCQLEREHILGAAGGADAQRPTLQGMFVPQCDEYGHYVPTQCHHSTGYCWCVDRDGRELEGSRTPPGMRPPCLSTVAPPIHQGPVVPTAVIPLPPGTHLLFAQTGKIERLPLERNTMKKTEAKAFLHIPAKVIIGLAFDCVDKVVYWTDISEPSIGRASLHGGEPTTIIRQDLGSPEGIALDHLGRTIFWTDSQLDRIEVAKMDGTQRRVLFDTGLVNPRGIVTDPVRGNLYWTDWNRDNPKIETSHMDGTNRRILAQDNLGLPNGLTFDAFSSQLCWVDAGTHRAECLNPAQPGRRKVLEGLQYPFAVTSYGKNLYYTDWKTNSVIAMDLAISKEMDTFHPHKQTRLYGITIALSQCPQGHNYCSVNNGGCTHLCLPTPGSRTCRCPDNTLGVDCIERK
The test is described as follows: Radioligand competition assay: inhibition of 125I-laminin fragment P1 binding to nidogen. Particulars: for IC50 higher / less active than fragment P1: relative to laminin fragment P1; for inhibitory activity in words: laminin-nidogen binding competition; for higher inhibitory activity compared with loop a,b: relative to synthetic loop a,b peptide. On the procedure: A radioligand competition assay was used for measurement of relative binding affinities (Mann K. et al. (1988), Eur. J. Biochem., 178, 71-80; Fox, J. W. et al. (1991), EMBO J., 10, 3137-3146). A fixed concentration of recombinant nidogen (0.2 nM) was incubated overnight at 4° C. with inhibitors at varying concentrations, followed by the addition of ^125 I-labeled laminin fragment P1 (0.01 nM; 10,000-20,000 c.p.m.) for the same incubation period. Bound and non-bound fragment P1 was then separated by antibodies against nidogen. Competitor concentrations causing 50% inhibition (IC50) were determined from dose-response profiles. […] IC50 values compared from different assays were normalized to a single fragment P1 value.
A general note: Loss of bound radioactivity is the signal in a displacement assay; it reports binding, not function.

The mark [1] stands for this setting: Table II, synthetic loops of EGF-like repeat 4 and smaller synthetic and proteolytic fragments, read-out: IC50 (inhibitory capacity).
Setting [2] is: Table IV, recombinant mutants and chimeric structures of γ1III4, read-out: IC50 (inhibitory activity for laminin-nidogen binding).
The mark [3] stands for this setting: Table III, amino acid replacements in heptapeptide NIDPNAV, read-out: IC50 (inhibitory capability for laminin-nidogen binding).

Where two headings read alike, the source gives them in different places. Where a SMILES comes first, the peptide text is derived from it. Where no end group is shown, it is not given here.

As for `CC[C@H](C)[C@H](NC(=O)[C@H](CC(N)=O)NC(=O)[C@H](CC(=O)O)NC(=O)[C@H](CC(N)=O)NC(=O)[C@H](CS)NC(=O)[C@H](CCC(N)=O)NC(=O)[C@H](CS)NC(=O)[C@@H]1CCCN1)C(=O)N[C@@H](CC(=O)O)C(=O)N1CCC[C@H]1C(=O)N[C@@H](CC(N)=O)C(=O)N[C@@H](C)C(=O)N[C@H](C(=O)NCC(=O)N[C@@H](CC(N)=O)C(=O)N[C@@H](CS)C(=O)N[C@@H](CC(N)=O)C(=O)N[C@@H](CCCNC(=N)N)C(=O)N[C@@H](CC(C)C)C(=O)N[C@H](C(=O)NCC(=O)N[C@@H](CCC(=O)O)C(=O)N[C@@H](CS)C(=O)N[C@@H](CC(C)C)C(=O)O)[C@@H](C)O)C(C)C` [loop a,b, non-oxidized] (H-PCQCNDNIDPNAVGNCNRLTGECL-OH; N-terminus and C-terminus assumed), the “IC50 higher / less active than fragment P1” value is reported as 5,000 fold. In the case of IDPNAVGN [IOPNAVGN], the IC50 under setting [1] came to 1600 nM. For `CC(C)C[C@@H]1NC(=O)[C@@H]2CCCN2C(=O)[C@H](CC(N)=O)NC(=O)CNC(=O)[C@H](Cc2ccccc2)NC(=O)[C@H](Cc2ccccc2)NC(=O)CNC(=O)[C@H](CCC(=O)O)NC(=O)[C@H](CCCCN)NC(=O)[C@@H](NC(=O)[C@@H](N)CCCNC(=N)N)CSSC[C@@H](C(=O)N[C@@H](CCCCN)C(=O)O)NC(=O)[C@H](CCCCN)NC(=O)[C@H](CC(=O)O)NC(=O)[C@H](C)NC(=O)[C@@H]2CCCN2C(=O)[C@H](CC(N)=O)NC(=O)[C@@H]2CCCN2C(=O)[C@H](C)NC1=O` [loop d, oxidized] (HELM PEPTIDE1{R.C.K.E.G.F.F.G.N.P.L.A.P.N.P.A.D.K.C.K}$PEPTIDE1,PEPTIDE1,2:R3-19:R3$$$V2.0; N-terminus and C-terminus assumed), the “inhibitory activity in words” value is reported as “No inhibitory activity”. In addition, the half-maximal inhibitory concentration (IC50) under setting [1] was more than 90000 nM. The half-inhibitory concentration (IC50) (read-out: IC50) lay within 90000 to 200000 nM.

Consider “γ1III4ab3cd: recombinant chimera: loop a,b of repeat 4 with loop c,d of repeat 3 (PCQCNDNIDPNAVGNCNRLTGECLKCPTGTAGKRCELCDDGYFGDPLGSNGPVRLCR)”, for which the “higher inhibitory activity compared with loop a,b” value came out at 3 fold. In addition, the 50% inhibitory concentration (IC50) under setting [2] stood at 80 nM. Moreover, the “further decrease in activity” value (loop c replaced by loop c of a non-binding repeat, relative to the Tyr819 modification) is recorded as 30 fold. The IC50 (read-out: IC50) was found to be 80 nM. For the compound “γ1III3ab4cd: recombinant chimera: loop a,b of repeat 3 with loop c,d of repeat 4 (PCPCPGGSSCAIVPKTKEVVCTHCIYNTAGFYCDRCKEGFFGNPLAPNPADKCK)”, the IC50 under setting [2] was 1100 nM.

As to NVDPSAV [NVDPSAV], under setting [3], the IC50 is more than 180000 nM. For AVGNCNR [Th1, AVGNCNR], the “inhibitory activity in words” value was “inactive”. The half-maximal inhibitory concentration (IC50) under setting [1] was more than 30000 nM. For “γ1III4: recombinant nidogen binding EGF-like repeat 4 of laminin γ1 chain domain III, 56 residues [reference compound]”, the IC50 reads like this: under setting [2], 0.05 nM; (read-out: IC50) 0.05 nM. As for LTGECL [T2, LTGECL], under setting [1], the half-inhibitory concentration (IC50) was determined as 12000 nM. In the case of “γ1III4Y825-A: recombinant γ1III4 with Tyr825 mutated to Ala”, the “inhibitory activity in words” value is reported as “without significant effect on inhibitory activity”. Moreover, the IC50 under setting [2] was found to be 0.06 nM. Take `CC[C@H](C)[C@@H]1NC(=O)[C@@H](NC(=O)[C@H](CCCCN)NC(=O)[C@H](CC(C)C)NC(=O)[C@@H]2CSSC[C@H](NC(=O)[C@@H](N)CCC(N)=O)C(=O)N[C@@H](CC(N)=O)C(=O)N[C@@H](CC(=O)O)C(=O)N[C@@H](CC(N)=O)C(=O)N[C@@H]([C@@H](C)CC)C(=O)N[C@@H](CC(=O)O)C(=O)N3CCC[C@H]3C(=O)N[C@@H](CC(N)=O)C(=O)N[C@@H](C)C(=O)N[C@@H](C(C)C)C(=O)NCC(=O)N2)CSSC[C@@H](C(=O)N[C@@H](CC(=O)O)C(=O)O)NC(=O)[C@H](Cc2ccc(O)cc2)NC(=O)[C@H](Cc2ccccc2)NC(=O)CNC(=O)[C@H](C)NC(=O)[C@H]([C@@H](C)O)NC(=O)[C@H](CC(N)=O)NC(=O)[C@H](Cc2ccc(O)cc2)NC1=O` [loop a,c, oxidized, QCNDNIDPNAVGCLKC1YNTAGFYCD] (HELM PEPTIDE1{Q.C.N.D.N.I.D.P.N.A.V.G.C.L.K.C.I.Y.N.T.A.G.F.Y.C.D}$PEPTIDE1,PEPTIDE1,2:R3-13:R3|PEPTIDE1,PEPTIDE1,16:R3-25:R3$$$V2.0; N-terminus and C-terminus assumed): the “IC50 higher / less active than fragment P1” value was 300 fold and the “higher inhibitory activity compared with loop a,b” value was determined as 20 fold. In the case of NIDPNA [NIDPNA], under setting [1], the concentration for half-maximal inhibition (IC50) was more than 460000 nM. Consider `CC[C@H](C)[C@H](NC(=O)[C@H](CC(N)=O)NC(=O)[C@H](CC(=O)O)NC(=O)[C@H](CC(N)=O)NC(=O)[C@H](CS)NC(=O)[C@H](CCC(N)=O)NC(=O)[C@H](CS)NC(=O)[C@@H]1CCCN1)C(=O)N[C@@H](CC(=O)O)C(=O)N1CCC[C@H]1C(=O)N[C@@H](CC(N)=O)C(=O)N[C@@H](C)C(=O)N[C@H](C(=O)NCC(=O)N[C@@H](CC(N)=O)C(=O)N[C@@H](CS)C(=O)N[C@@H](CC(N)=O)C(=O)N[C@@H](CCCNC(=N)N)C(=O)O)C(C)C` [T1, PCQCNDNTDPNAVGNCNR], for which the “inhibitory activity in words” value is reported as “undiminished activity”.

`CC[C@H](C)[C@@H]1NC(=O)[C@@H](NC(=O)[C@@H](N)CCCCN)CSSC[C@@H](C(=O)N[C@@H](CC(=O)O)C(=O)O)NC(=O)[C@H](Cc2ccc(O)cc2)NC(=O)[C@H](Cc2ccccc2)NC(=O)CNC(=O)[C@H](C)NC(=O)[C@H]([C@@H](C)O)NC(=O)[C@H](CC(N)=O)NC(=O)[C@H](Cc2ccc(O)cc2)NC1=O` [loop c, oxidized] (HELM PEPTIDE1{K.C.I.Y.N.T.A.G.F.Y.C.D}$PEPTIDE1,PEPTIDE1,2:R3-11:R3$$$V2.0): the half-inhibitory concentration (IC50) was more than 200000 nM under setting [1] and 90000 to 200000 nM (read-out: IC50). Take `NC(=O)CC[C@H](NC(=O)[C@H](CS)NC(=O)[C@@H]1CCCN1)C(=O)N[C@@H](CS)C(=O)N[C@@H](CC(N)=O)C(=O)O` [E3, PCQCN] (H-PCQCN-OH; N-terminus assumed): the “inhibitory activity in words” value was “inactive”. In addition, under setting [1], the IC50 is more than 96000 nM. As to “γ1III4Y819/825-A, reduced: γ1III4Y819/825-A reduced and alkylated under denaturing conditions”, the concentration for half-maximal inhibition (IC50) under setting [2] stood at 430 nM. Regarding “γ1III4N802-S: recombinant γ1III4 with Asn802 mutated to Ser”, the “reduction in activity of mutant” value (relative to wild-type γ1III4) is ~ 100,000 fold. In the case of “γ1III4Y819-A: recombinant γ1III4 with Tyr819 mutated to Ala”, the IC50 under setting [2] stood at 3 nM.

As for `CC(C)C[C@H](NC(=O)[C@H](CS)NC(=O)[C@H](CCC(=O)O)NC(=O)CNC(=O)[C@@H](NC(=O)[C@H](CC(C)C)NC(=O)[C@H](CCCNC(=N)N)NC(=O)[C@H](CC(N)=O)NC(=O)[C@H](CS)NC(=O)[C@H](CC(N)=O)NC(=O)CNC(=O)[C@@H](NC(=O)[C@H](C)NC(=O)[C@H](CC(N)=O)NC(=O)[C@@H]1CCCN1C(=O)[C@@H](N)CC(=O)O)C(C)C)[C@@H](C)O)C(=O)O` [E2, DPNAVGNCNRLTGECL] (H-DPNAVGNCNRLTGECL-OH; C-terminus assumed), under setting [1], the half-maximal inhibitory concentration (IC50) was 3000 nM. Take “γ1III4Y819/825-A: recombinant γ1III4 with Tyr819 and Tyr825 mutated to Ala”: under setting [2], the IC50 came to 1.5 nM. For the setting “reduced and alkylated under denaturing conditions versus disulfide-bonded form”, the “decrease in activity after reduction and alkylation” value was ~ 300 fold. Turning to NIDPNAVGN [NIDPNAVGN], the IC50 is 600 nM under setting [1] and 600 nM (read-out: IC50). Take NIDPNAV [NIDPNAV]: the IC50 reads like this: under setting [1], 800 nM; (read-out: IC50) 800 nM. For the compound “γ1III4D800,N: recombinant γ1III4 with Asp800 mutated to Asn”, the half-maximal inhibitory concentration (IC50) under setting [2] came out at 1000 nM. Consider NVDPNAS [NVDPNAS], for which the concentration for half-maximal inhibition (IC50) under setting [3] is more than 160000 nM.
